Test results published in ChEMBL document CHEMBL1128680, “6-substituted 2,4-diamino-5-methylpyrido[2,3-d]pyrimidines as inhibitors of dihydrofolate reductases from Pneumocystis carinii and Toxoplasma gondii and as antitumor agents” (J Med Chem, 1995).
One block for each compound: values may come before it.

Key:
Dihydrofolate reductase [1] = biological target: T1, Dihydrofolate reductase (Pneumocystis carinii, UniProt P16184)
T1 sequence (P16184 whole entry): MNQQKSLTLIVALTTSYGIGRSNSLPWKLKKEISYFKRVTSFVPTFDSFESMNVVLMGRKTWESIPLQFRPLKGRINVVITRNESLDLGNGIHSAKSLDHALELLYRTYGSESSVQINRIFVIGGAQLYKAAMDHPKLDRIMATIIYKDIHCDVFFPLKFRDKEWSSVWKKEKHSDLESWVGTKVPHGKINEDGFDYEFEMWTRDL
Description: Inhibitory activity against Dihydrofolate reductase from Pneumocystis carinii

Dihydrofolate reductase [2] = biological target: T2, Dihydrofolate reductase (Rattus norvegicus, UniProt Q920D2)
T2 sequence (Q920D2 whole entry): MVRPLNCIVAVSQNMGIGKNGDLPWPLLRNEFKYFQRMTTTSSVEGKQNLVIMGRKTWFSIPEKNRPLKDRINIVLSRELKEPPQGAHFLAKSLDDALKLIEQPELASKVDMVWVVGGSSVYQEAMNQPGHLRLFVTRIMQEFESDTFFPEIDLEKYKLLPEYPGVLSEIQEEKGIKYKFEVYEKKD
Description: Inhibitory activity against Dihydrofolate reductase from rat liver

[3] = biological target: T3, Bifunctional dihydrofolate reductase-thymidylate synthase (Toxoplasma gondii, UniProt Q07422)
T3 sequence (Q07422 whole entry): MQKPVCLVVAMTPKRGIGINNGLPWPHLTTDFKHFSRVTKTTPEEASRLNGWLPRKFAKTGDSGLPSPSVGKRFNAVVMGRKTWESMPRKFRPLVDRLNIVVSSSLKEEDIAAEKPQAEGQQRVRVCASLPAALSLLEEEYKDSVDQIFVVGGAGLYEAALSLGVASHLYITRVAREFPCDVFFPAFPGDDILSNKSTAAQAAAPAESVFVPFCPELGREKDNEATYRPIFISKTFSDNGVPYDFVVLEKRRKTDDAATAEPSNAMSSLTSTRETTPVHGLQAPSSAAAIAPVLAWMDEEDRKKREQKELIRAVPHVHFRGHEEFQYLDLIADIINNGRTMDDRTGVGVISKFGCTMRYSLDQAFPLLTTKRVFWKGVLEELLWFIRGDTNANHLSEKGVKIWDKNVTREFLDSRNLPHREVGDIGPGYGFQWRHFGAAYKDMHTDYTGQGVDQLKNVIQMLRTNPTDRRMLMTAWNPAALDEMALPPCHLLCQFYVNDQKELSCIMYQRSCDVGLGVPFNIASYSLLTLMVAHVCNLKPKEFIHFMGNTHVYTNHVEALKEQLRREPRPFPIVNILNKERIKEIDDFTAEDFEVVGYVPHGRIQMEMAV
Description: Inhibitory activity against Dihydrofolate reductase from Toxoplasma gondii

IGROV-1 = experiment: Cytotoxic activity against IGROV1 Ovarian cancer cell line; format: functional; details: Homo sapiens
SR = experiment: Cytotoxic activity against SR Leukemia cell line; format: functional; details: Homo sapiens
A549 = experiment: Cytotoxic activity against A549/ATCC non-small cell-lung cancer cell line; format: functional; details: Homo sapiens
MDA-MB-435 = experiment: Cytotoxic activity against MDA-MB-435 Breast cancer cell line; format: functional; details: Homo sapiens
NCI-H460 = experiment: Cytotoxic activity against NCI-H460 non-small cell-lung cancer cell line; format: functional; details: Homo sapiens
U-251 = experiment: Cytotoxic activity against U251 CNS cancer cell line; format: functional; details: Homo sapiens
MDA-N [4] = experiment: Cytotoxic activity against MDA-N Breast cancer cell line; format: functional; details: Homo sapiens
HCT-116 = experiment: Cytotoxic activity against HCT116 colon cancer cell line; format: functional; details: Homo sapiens
UACC-62 = experiment: Cytotoxic activity against UACC-62 Melanoma cell line; format: functional; details: Homo sapiens
MDA-MB-231 = experiment: Cytotoxic activity against MDA-MB-231/ATCC Breast cancer cell line; format: functional; details: Homo sapiens
CCRF-CEM = experiment: Cytotoxic activity against CCRF-CEM Leukemia cell line; format: functional; details: Homo sapiens
HCT-15 = experiment: Cytotoxic activity against HCT-15 colon cancer cell line; format: functional; details: Homo sapiens
UACC-257 = experiment: Cytotoxic activity against UACC-257 Melanoma cell line; format: functional; details: Homo sapiens
HT-29 = experiment: Cytotoxic activity against HT-29 colon cancer cell line; format: functional; details: Homo sapiens
SF-295 = experiment: Cytotoxic activity against SF-295 CNS cancer cell line; format: functional; details: Homo sapiens
SW-620 = experiment: Cytotoxic activity against SW-620 colon cancer cell line; format: functional; details: Homo sapiens
DU-145 = experiment: Cytotoxic activity against DU-145 Prostate cancer cell line; format: functional; details: Homo sapiens
MOLT-4 = experiment: Cytotoxic activity against MOLT-4 Leukemia cell line; format: functional; details: Homo sapiens
SK-MEL-5 = experiment: Cytotoxic activity against SK-MEL-5 Melanoma cell line; format: functional; details: Homo sapiens
LOX IMVI = experiment: Cytotoxic activity against LOXIMVI Melanoma cell line; format: functional; details: Homo sapiens
K562 = experiment: Cytotoxic activity against K-562 Leukemia cell line; format: functional; details: Homo sapiens
SF-268 = experiment: Cytotoxic activity against SF-268 CNS canser cell line; format: functional; details: Homo sapiens
PC-3 = experiment: Cytotoxic activity against PC-3 Prostate cancer cell line; format: functional; details: Homo sapiens
ACHN = experiment: Cytotoxic activity against ACHN Renal cancer cell line; format: functional; details: Homo sapiens
786-0 = experiment: Cytotoxic activity against 786-0 Renal cancer cell line; format: functional; details: Homo sapiens
MDA-N [5] = experiment: Cytotoxic activity against MDA-N breast cancer cell line; format: functional; details: Homo sapiens
NCI-H322M = experiment: Cytotoxic activity against NCI-H322M non-small cell-lung cancer cell line; format: functional; details: Homo sapiens
[6] = Ratio of the inhibitory concentrations against Toxoplasma gondii […] and Toxoplasma gondii DHFR.
Toxoplasma gondii = experiment: Inhibitory activity against cultured Toxoplasma gondii; format: functional, organism-based
Dihydrofolate reductase [7] = biological target: Dihydrofolate reductase (Lactobacillus casei, UniProt P00381)
Chain of Dihydrofolate reductase (Lactobacillus casei, UniProt P00381) (P00381 whole entry): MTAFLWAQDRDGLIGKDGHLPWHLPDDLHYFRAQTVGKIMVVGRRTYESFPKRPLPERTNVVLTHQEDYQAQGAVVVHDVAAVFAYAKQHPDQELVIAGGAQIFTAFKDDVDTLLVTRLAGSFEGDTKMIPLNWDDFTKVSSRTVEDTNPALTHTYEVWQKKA
Description: Inhibitory activity against Dihydrofolate reductase from Lactobacillus casei

- IC50 (Dihydrofolate reductase [1]): 3100 nM
- IC50 (Dihydrofolate reductase [2]): 3000 nM
SMILES: CCOc1ccc(OCC)c(N(C)Cc2cnc3nc(N)nc(N)c3c2C)c1
- IC50 [3]: 100 nM

SMILES: COc1cc(OC)cc(N(C)Cc2cnc3nc(N)nc(N)c3c2C)c1
- GI50 (IGROV-1): 956 nM
- GI50 (SR): 541 nM
- IC50 (Dihydrofolate reductase [1]): 130 nM
- GI50 (A549): 442 nM
- GI50 (MDA-MB-435): 6930 nM
- GI50 (NCI-H460): 544 nM
- GI50 (U-251): 529 nM
- GI50 (MDA-N [4]): 527 nM
- GI50 (HCT-116): 410 nM
- GI50 (UACC-62): 628 nM
- GI50 (MDA-MB-231): 9220 nM
- GI50 (CCRF-CEM): 536 nM
- GI50 (HCT-15): 2120 nM
- GI50 (UACC-257): 620 nM
- GI50 (HT-29): 5840 nM
- GI50 (SF-295): 5150 nM
- GI50 (SW-620): 5500 nM
- GI50 (DU-145): 4360 nM
- GI50 (MOLT-4): 742 nM
- GI50 (SK-MEL-5): 596 nM
- GI50 (LOX IMVI): 1990 nM
- GI50 (K562): 209 nM
- GI50 (SF-268): 717 nM
- IC50 (Dihydrofolate reductase [2]): 170 nM
- GI50 (PC-3): 594 nM
- GI50 (ACHN): 816 nM
- IC50 [3]: 58 nM
- GI50 (786-0): 630 nM

SMILES: COc1ccc(NCc2cnc3nc(N)nc(N)c3c2C)c(OC)c1
- GI50 (IGROV-1): 6270 nM
- GI50 (SR): 3530 nM
- IC50 (Dihydrofolate reductase [1]): 316 nM
- GI50 (A549): 635 nM
- GI50 (MDA-MB-435): 3530 nM
- GI50 (NCI-H460): 481 nM
- GI50 (U-251): 5810 nM
- GI50 (HCT-116): 173 nM
- GI50 (UACC-62): 126000 nM
- GI50 (MDA-MB-231): 1910 nM
- GI50 (CCRF-CEM): 4290 nM
- GI50 (HCT-15): 2200 nM
- GI50 (UACC-257): 100000 nM
- GI50 (HT-29): 2380 nM
- GI50 (SF-295): 1610 nM
- GI50 (DU-145): 2830 nM
- GI50 (MOLT-4): 1220 nM
- GI50 (SK-MEL-5): 1150 nM
- GI50 (LOX IMVI): 3350 nM
- GI50 (K562): 305 nM
- GI50 (MDA-N [5]): 359 nM
- GI50 (SF-268): 4170 nM
- IC50 (Dihydrofolate reductase [2]): 214 nM
- GI50 (PC-3): 852 nM
- GI50 (NCI-H322M): 50600 nM
- GI50 (ACHN): 2890 nM
- IC50 [3]: 56.5 nM
- GI50 (786-0): 588 nM

SMILES: Cc1c(CNc2cccc3ccccc23)cnc2nc(N)nc(N)c12
- IC50 (Dihydrofolate reductase [1]): 573 nM
- IC50 (Dihydrofolate reductase [2]): 29.6 nM
- Ratio [6]: 7
- IC50 (Toxoplasma gondii): 100 nM
- IC50 [3]: 14.5 nM

- IC50 (Dihydrofolate reductase [1]): 13.4 nM
- IC50 (Dihydrofolate reductase [7]): 210 nM
- IC50 (Dihydrofolate reductase [2]): 17.5 nM
SMILES: COc1cc(N(Cc2cnc3nc(N)nc(N)c3c2C)C(C)C)cc(OC)c1OC
- IC50 [3]: 6.7 nM

- IC50 (Dihydrofolate reductase [1]): 320 nM
- IC50 (Dihydrofolate reductase [2]): 44 nM
SMILES: COc1ccc(N(C)Cc2cnc3nc(N)nc(N)c3c2C)cc1OC
- IC50 [3]: 29 nM

SMILES: CCOc1ccc(OCC)c(NCc2cnc3nc(N)nc(N)c3c2C)c1
- IC50 (Dihydrofolate reductase [1]): 76.7 nM
- IC50 (Dihydrofolate reductase [2]): 17.4 nM
- Ratio [6]: 19
- IC50 (Toxoplasma gondii): 320 nM
- IC50 [3]: 17 nM

SMILES: COc1cc(NCc2cnc3nc(N)nc(N)c3c2C)cc(OC)c1
- IC50 (Dihydrofolate reductase [1]): 22.9 nM
- IC50 (Dihydrofolate reductase [2]): 42.5 nM
- Ratio [6]: 125
- IC50 (Toxoplasma gondii): 600 nM
- IC50 [3]: 4.8 nM

- IC50 (Dihydrofolate reductase [1]): 53.5 nM
- IC50 (Dihydrofolate reductase [2]): 11.8 nM
SMILES: C#CCN(Cc1cnc2nc(N)nc(N)c2c1C)c1cc(OC)c(OC)c(OC)c1
- IC50 [3]: 7.7 nM
